Source: patent US8633183B2 (priority 2010, dated 2014)

Target: PI3Kalpha (Homo sapiens (Human), UniProt P42336)
Details: read-out: IC50 PI3K

Sequence of PI3Kalpha (P42336 whole entry, looked up): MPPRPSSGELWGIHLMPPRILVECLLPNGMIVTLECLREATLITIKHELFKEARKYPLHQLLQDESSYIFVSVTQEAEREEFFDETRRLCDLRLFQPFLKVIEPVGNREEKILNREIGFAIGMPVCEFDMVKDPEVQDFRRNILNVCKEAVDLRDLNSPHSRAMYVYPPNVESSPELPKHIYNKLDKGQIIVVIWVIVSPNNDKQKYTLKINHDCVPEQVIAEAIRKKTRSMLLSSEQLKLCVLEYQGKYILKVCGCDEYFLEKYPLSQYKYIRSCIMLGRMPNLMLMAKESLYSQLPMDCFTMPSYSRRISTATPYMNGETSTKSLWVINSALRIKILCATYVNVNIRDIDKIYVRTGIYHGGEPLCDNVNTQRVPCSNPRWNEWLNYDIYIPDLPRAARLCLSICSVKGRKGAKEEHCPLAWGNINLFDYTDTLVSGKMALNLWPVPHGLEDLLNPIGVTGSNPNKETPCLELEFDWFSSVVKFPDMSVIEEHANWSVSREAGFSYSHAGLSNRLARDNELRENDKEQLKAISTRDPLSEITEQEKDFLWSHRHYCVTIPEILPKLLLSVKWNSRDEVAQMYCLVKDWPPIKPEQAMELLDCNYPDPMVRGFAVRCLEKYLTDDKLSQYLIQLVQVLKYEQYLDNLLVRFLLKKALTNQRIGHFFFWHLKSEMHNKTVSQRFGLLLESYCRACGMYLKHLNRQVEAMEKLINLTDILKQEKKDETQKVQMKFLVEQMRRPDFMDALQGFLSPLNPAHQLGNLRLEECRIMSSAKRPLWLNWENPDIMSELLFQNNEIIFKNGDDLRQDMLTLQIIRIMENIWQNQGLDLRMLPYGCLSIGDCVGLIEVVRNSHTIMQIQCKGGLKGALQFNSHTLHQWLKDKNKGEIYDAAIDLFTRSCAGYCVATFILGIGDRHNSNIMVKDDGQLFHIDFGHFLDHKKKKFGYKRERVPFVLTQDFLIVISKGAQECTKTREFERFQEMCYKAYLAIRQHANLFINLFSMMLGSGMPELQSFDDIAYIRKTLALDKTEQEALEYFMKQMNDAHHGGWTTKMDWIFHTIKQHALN

Row | Structure (SMILES) | IC50 [nM]
1 | CCc1ncnc(-c2cc(F)c(C(=O)N3CCN(C(C)COC)CC3)c(Cl)c2)c1C#Cc1ccc(N)nc1 (centres unmarked) [Example E-305] | 110
2 | CCc1ncnc(-c2cc(F)c(C(=O)N3CCN(Cc4cc(C)no4)CC3)c(Cl)c2)c1C#Cc1ccc(N)nc1 [Example E-304] | 108
3 | CCc1ncnc(-c2ccc(OC)nc2)c1C#Cc1ccc(N)nc1 [Example C-30] | 40
4 | Cc1ncnc(-c2ccc(C(=O)N3CCN4CCCCC4C3)cc2)c1C#Cc1ccc(N)nc1 [Example D-191] | 81
5 | CCc1ncnc(-c2ccc(C(=O)N3CCC4(CC3)CNC4)c(F)c2)c1C#Cc1ccc(N)nc1 [Example E-268] | 242
6 | CCc1ncnc(-c2ccc(C(=O)N3CCOC4(CCNCC4)C3)c(F)c2)c1C#Cc1ccc(N)nc1 [Example E-326] | 367
7 | CCc1ncnc(-c2ccc(C(=O)NC3CCS(=O)(=O)C3)c(F)c2)c1C#Cc1ccc(N)nc1 [Example D-212] | 79
8 | CCc1ncnc(-c2cc(F)c(C(=O)N3CC4(CN(C)C4)C3)c(Cl)c2)c1C#Cc1ccc(N)nc1 [Example E-289] | 298
9 | CCc1ncnc(-c2ccc(C(=O)N3CCC(N4CCN(C5CCN(C)CC5)CC4)CC3)c(F)c2)c1C#Cc1ccc(N)nc1 [Example D-67] | 244
10 | CCc1ncnc(-c2cc(Cl)c(C(=O)N3CCC(C(C)O)CC3)c(Cl)c2)c1C#Cc1ccc(N)nc1 (centres unmarked) [Example E-200] | 58.8
11 | CCc1ncnc(-c2ccc(C(=O)N3CCN(S(=O)(=O)CC)CC3)c(Cl)c2)c1C#Cc1ccc(N)nc1 [Example E-81] | 39.5
12 | CCc1ncnc(-c2ccc(C(=O)N3CCN(CC4CCCCC4)CC3)c(C)c2)c1C#Cc1ccc(N)nc1 [Example E-113] | 414
13 | CCc1ncnc(-c2ccc(C(=O)NC3CCCN(C4CCN(C)CC4)C3)c(F)c2)c1C#Cc1ccc(N)nc1 [Example D-205] | 335
14 | CCc1ncnc(-c2ccc(C(=O)N3CCCC(O)C3)c(Cl)c2)c1C#Cc1ccc(N)nc1 (centres unmarked) [Example E-29] | 65
15 | CCc1ncnc(-c2ccc(C(=O)N3CCC(O)CC3)c(C)c2)c1C#Cc1ccc(N)nc1 [Example E-132] | 45.5
16 | CCc1ncnc(-c2ccc(F)c(C(=O)N3CCOCC3)c2)c1C#Cc1ccc(N)nc1 [Example C-46] | 226
17 | CCc1ncnc(-c2cc(F)c(C(=O)N3CCC4(CC3)CN(C)C4)c(F)c2)c1C#Cc1ccc(N)nc1 [Example E-336] | 773
18 | CCc1ncnc(-c2ccc(C(=O)N3CCOCC3)c(Cl)c2)c1C#Cc1ccc(N)nc1 [Example E-72] | 66.5
19 | CCc1ncnc(-c2ccc(C(=O)N(C)C3CCN(C)CC3)c(F)c2)c1C#Cc1ccc(N)nc1 [Example D-3] | 574
20 | CCc1ncnc(-c2ccc(C(=O)N3CCN(CC4CCCN(C)C4)CC3)c(F)c2)c1C#Cc1ccc(N)nc1 [Example D-114] | 188
21 | Cc1ncnc(-c2cc(Cl)cc(C(=O)N(C)C)c2)c1C#Cc1ccc(N)nc1 [Example C-38] | 68
22 | Cc1ncnc(-c2ccc(C(=O)N3CCCO3)c(F)c2)c1C#Cc1ccc(N)nc1 [Example D-226] | 48
23 | CCc1ncnc(-c2ccc(C(=O)N3CCN(S(=O)(=O)CC)CC3)c(OC)c2)c1C#Cc1ccc(N)nc1 [Example D-55] | 36
24 | CCc1ncnc(-c2ccc(C(=O)N3CCN(Cc4ccccc4)CC3)c(OC)c2)c1C#Cc1ccc(N)nc1 [Example E-69] | 415
25 | CCc1ncnc(-c2ccc(C(=O)N3CCN(C4CC4)CC3)c(F)c2)c1C#Cc1ccc(N)nc1C [Example D-13] | 312
26 | CCc1ncnc(-c2cc(F)c(C(=O)N3CCN(CCC#N)CC3)c(Cl)c2)c1C#Cc1ccc(N)nc1 [Example E-243] | 110
27 | CCc1ncnc(-c2ccc(C(=O)N3CCC(CN(C)C)CC3)c(F)c2)c1C#Cc1ccc(N)nc1C [Example E-281] | 679
28 | CCc1ncnc(-c2ccc(C(=O)N3CCN(CC)CC3)c(C(F)(F)F)c2)c1C#Cc1ccc(N)nc1 [Example E-231] | 185
29 | CCc1ncnc(-c2ccc(C(=O)NCCN3CCNCC3)c(F)c2)c1C#Cc1ccc(N)nc1 [Example E-167] | 157
